Experimental findings from patent US8816089B2, “Methods for controlling SR protein phosphorylation, and antiviral agents whose active ingredients comprise agents that control SR protein activity” (priority 2003, dated 2014) are described below.

SMILES strings stand for the structures.

The subject of one data set is HIV. The data set can be described thus: HIV infection experiment in MT-4 cells, HIVp24 by Lumipulse ELISA. Particulars: MT-4 cells, 5, 10, or 20 μM, supernatant after 48 hours. On the technique in general: In an ELISA, binding on a coated surface is turned into a signal by an enzyme label.
In a further data set the test system is Cytomegalovirus. Particulars: HFL1 cells, 20 or 40 μM, seven days after infection.
In the next data set the test system is SARS virus (FFM-1). Format: cell-based. Particulars: Vero cells, 40 μM, 48 hours.
In another data set the test system is SRPK1 or SRPK2. Nature of the data set: Inhibition of SRPK1 or SRPK2 phosphorylation activity by SRPIN-1 analogs (FIG. 5A). Conditions: 10 μM in DMSO, 30° C., 20 minutes. Format: biochemical. The method, then: FIG. 5A: Evaluation of the SRPK-inhibiting activities of SRPIN-1 and analogs thereof.
The same procedure as described in Example 4B was used to determine whether SRPIN-1 analogs had the activity of inhibiting the phosphorylation activity of SRPK1 and SRPK2. Each SRPIN-1 analog (10 μM; in DMSO) was incubated with 1 μg of purified recombinant SRPK1 or SRPK2 protein, which was expressed in E. coli, in a reaction buffer (400 μM HEPES (pH 7.5), 100 μM MgCl2, 200 μM ATP, […] [γ-^32P] ATP, and 1 mg/ml RS peptide (SEQ ID NO: 5)) in a 30° C. water bath for 20 minutes.
After RS peptide was incubated with SRPK1 or SRPK2 for 20 minutes, the reaction solution was dropped onto P81 phosphocellulose membrane (P81; Whatman) and the membrane was washed three times for ten minutes with 5% phosphoric acid solution. After washing, ^32P radioactivity on the P81 membrane was determined using a liquid scintillation counter.

Data set [1] concerns Chinese hamster CHL cells. The data set can be described thus: Chromosomal screening test for mutagenicity in mammalian cells. Conditions: positive control, 500 μg/ml, short treatment, +S9 mix.

In the case of `Cc1ccc(S(=O)(=O)Nc2cc(C(F)(F)F)ccc2N2CCCCC2)cc1` [compound 622, N-[2-(1-piperidinyl)-5-(trifluoromethyl)phenyl]-p-toluenesulfonamide], the “effect in suppressing HIV replication (HIVp24)” value (from here on “effect … (HIVp24)”) in the data set on HIV is reported as “strong effects in suppressing HIV propagation”.

As for `O=C(Nc1ccccc1N1CCCCC1)c1ccncc1` [Compound No. 349, N-[2-(1-piperidinyl)phenyl]isonicotinamide], in the data set with Cytomegalovirus, the “morphological changes and cell death caused by cytomegalovirus infection” value is “suppressed the abnormal morphological changes and cell death caused by cytomegalovirus infection”. Moreover, the “SARS virus propagation (plaque assay)” value in the data set with SARS virus (FFM-1) was “significantly suppressed SARS virus propagation”.

Turning to `O=C(Nc1cc(C(F)(F)F)ccc1N1CCCCC1)c1cccnc1` [compound 343, N-[2-(1-piperidinyl)-5-(trifluoromethyl)phenyl]nicotinamide], the “effect … (HIVp24)” value in the data set on HIV is given as “strong effects in suppressing HIV propagation”.

`CCN(CC)c1ccc(C(F)(F)F)cc1NC(=O)c1ccncc1` [compound 347, N-[2-diethylamino-5-(trifluoromethyl)phenyl]isonicotinamide]: the “effect … (HIVp24)” value with HIV is on record as “strong effects in suppressing HIV propagation”.

In the case of `C[C@H]1CCCCN1c1ccc(C(F)(F)F)cc1NC(=O)c1ccncc1` [compound 613, (S)—N-[2-(2-methyl-1-piperidinyl)-5-(trifluoromethyl)phenyl]isonicotinamide], the “inhibitory effect on the phosphorylation activity of SRPK1 and/or SRPK2” value (from here on “inhibitory effect”) in the data set with SRPK1 or SRPK2 is on record as “strong inhibitory effect”. Moreover, the “effect … (HIVp24)” value in the data set with HIV was “strong effects in suppressing HIV propagation”.

In the case of `O=C(Nc1cc(C(F)(F)F)ccc1N1CCc2ccccc2C1)c1ccncc1` [compound 621, N-[2-(1,2,3,4-tetrahydroisoquinolin-2-yl)-5-(trifluoromethyl)phenyl]isonicotinamide], in the data set with SRPK1 or SRPK2, the “inhibitory effect” value was “strong inhibitory effect”.

With `O=C(Nc1cc(C(F)(F)F)ccc1N1CCc2ccccc21)c1ccncc1` [compound 619, N-[2-(1-indolinyl)-5-(trifluoromethyl)phenyl]isonicotinamide], the “inhibitory effect” value with SRPK1 or SRPK2 is listed as “strong inhibitory effect”. Further, the “effect … (HIVp24)” value with HIV was “strong effects in suppressing HIV propagation”.

As for `COc1ccc(C(=O)Nc2cc(C(F)(F)F)ccc2N2CCCCC2)cc1` [compound 615, N-[2-(1-piperidinyl)-5-(trifluoromethyl)phenyl]-4-methoxybenzamide], the “inhibitory effect” value in the data set with SRPK1 or SRPK2 is given as “strong inhibitory effect”. Besides, the “effect … (HIVp24)” value with HIV is “strong effects in suppressing HIV propagation”.

On to `O=C(Nc1cc(C(F)(F)F)ccc1N1CCCCCC1)c1ccncc1` [compound 618, N-[2-(1-hexahydro-1H-azepinyl)-5-(trifluoromethyl)phenyl]isonicotinamide], for which the “inhibitory effect” value with SRPK1 or SRPK2 is listed as “strong inhibitory effect”. In the data set with HIV, the “effect … (HIVp24)” value was “strong effects in suppressing HIV propagation”.

As for `O=C(Nc1cc(C(F)(F)F)ccc1Br)c1ccncc1` [compound 612, N-[2-bromo-5-(trifluoromethyl)phenyl]isonicotinamide], the “inhibitory effect” value in the data set with SRPK1 or SRPK2 was “strong inhibitory effect”.

Consider `CN(C)N=O` [DMN, dimethylnitrosamine, reference compound], for which the “frequency of occurrence of cells with chromosomal abnormalities” value in data set [1] came to 52.0%. Moreover, in data set [1] (50 metaphasic cells), the “frequency of occurrence of cells with chromosomal abnormalities (number of cells)” value is recorded as 26 cells.

As to `Cc1ccc(N2CCCCC2)c(NC(=O)c2ccncc2)c1` [compound 342, N-[5-methyl-2-(1-piperidinyl)phenyl]isonicotinamide], in the data set on HIV, the “effect … (HIVp24)” value is listed as “strong effects in suppressing HIV propagation”.

`FC(F)(F)c1ccc(N2CCCCC2)c(NC(=S)c2ccncc2)c1` [compound 616, N-[2-(1-piperidinyl)-5-(trifluoromethyl)phenyl]isonicotinthioamide]: in the data set on HIV, the “effect … (HIVp24)” value is reported as “strong effects in suppressing HIV propagation”.

`O=C(NC(=S)Nc1ccc(I)cc1Cl)c1cccnc1` [compound 623]: the “effect … (HIVp24)” value in the data set on HIV was “strong effects in suppressing HIV propagation”.

Regarding `O=C(Nc1cc(C(F)(F)F)ccc1N1Cc2ccccc2C1)c1ccncc1` [compound 620, N-[2-(2-isoindolinyl)-5-(trifluoromethyl)phenyl]isonicotinamide], the “effect … (HIVp24)” value in the data set on HIV is on record as “strong effects in suppressing HIV propagation”.

With `O=C(NC(=S)Nc1cccc(C(F)(F)F)c1)c1cccnc1` [compound 625], the “inhibitory effect” value in the data set on SRPK1 or SRPK2 was “strong inhibitory effect”. Further, the “effect … (HIVp24)” value in the data set with HIV is “strong effects in suppressing HIV propagation”.

Take `O=C(Nc1cc(F)ccc1N1CCCCC1)c1ccncc1` [compound 348, N-[5-fluoro-2-(1-piperidinyl)phenyl]isonicotinamide]: the “effect … (HIVp24)” value in the data set on HIV is given as “strong effects in suppressing HIV propagation”.

Regarding `O=C(Nc1cc(Cl)ccc1N1CCCCC1)c1ccncc1` [compound 341, N-[5-chloro-2-(1-piperidinyl)phenyl]isonicotinamide], the “effect … (HIVp24)” value in the data set on HIV is given as “strong effects in suppressing HIV propagation”.

Turning to `O=C(Nc1cc(C(F)(F)F)ccc1N1CCCCC1)c1ccc([N+](=O)[O-])cc1` [compound 345, N-[2-(1-piperidinyl)-5-(trifluoromethyl)phenyl]-4-nitrobenzamide], the “effect … (HIVp24)” value with HIV is “strong effects in suppressing HIV propagation”.

`O=C(NC(=S)Nc1cc(C(F)(F)F)ccc1N1CCCCC1)c1cccnc1` [compound 624, 1-nicotinoyl-3-[2-(1-piperidinyl)-5-(trifluoromethyl)phenyl]thiourea]: in the data set on SRPK1 or SRPK2, the “inhibitory effect” value is “strong inhibitory effect”. Also, the “effect … (HIVp24)” value with HIV is recorded as “strong effects in suppressing HIV propagation”.

Turning to `O=C(NC(=S)Nc1ccccc1)c1cccnc1` [compound 626], the “effect … (HIVp24)” value in the data set on HIV is reported as “strong effects in suppressing HIV propagation”.

Take `O=C(Nc1cccc(C(F)(F)F)c1)c1ccncc1` [compound 608, N-[3-(trifluoromethyl)phenyl]isonicotinamide]: in the data set on HIV, the “effect … (HIVp24)” value is given as “strong effects in suppressing HIV propagation”.
